Experimental data from US7335481B2, “Methods of identifying compounds that affect a fatty acid cell-surface receptor” (priority 2002, dated 2008).
Like-named read-outs stand apart in the source and are kept apart here.

Columns and labels:
FFAR (R10; GPR40) [1] = molecular target: T1, FFAR (R10; GPR40) (Homo sapiens, UniProt O14842); assay: HFF11 reporter cell assay, HFF11.pR10 cells expressing FFAR; format: cell-based; design: response of the R10 reporter cell line in the initial screening: dose or concentration left out as unconfirmed; settings: for activation of FFAR: result in words; for response of the R10 reporter cell line in the initial screening: FIG. 1a/1b
T1 construct: expressed in transfected cells; host or cells: HFF11 reporter cells (HeLa-based), line HFF11.pR10
Protocol: Construction of the HFF11 reporter cell lines (successor of the previously described HeLa based cell line, HF1) expressing the orphan GPCRs studied was performed as earlier reported. (Co-pending U.S. application Ser. No. 09/946,334 filed Sep. 21, 2001; Kotarsky et al. 2001.) They contain the reporter plasmid, pcFUS3, where the original promoter region has been extended by 6 NFkB and 6 STAT elements. (Co-pending U.S. application Ser. No. 09/946,334 filed Sep. 21, 2001; Kotarsky et al., unpublished.) On day 1, HFF11 reporter cells, with or without the test […] receptor, were seeded into 96-well plates at 20,000 cells per well in 100 μl growth medium. On day 3, the medium was removed and replaced by 90 μl serum-free medium. Substances (e.g., compounds) and controls were added in the appropriate concentrations 24 h later. Stimulations were performed at 37 degrees C. for 7 h. Cell lysates were assayed in a BMG Lumistar Galaxy luminometer as previously described. (Kotarsky et al., 2001.) Statistical analysis of the drug concentration-response data was carried out with the GraphPad PRISM software package. In the initial screening, reporter cell lines, with or without recombinant test receptors, were challenged with FFAs, such as AA and LA, at […]. Ten cell lines expressing ten “orphan receptors” (one receptor per cell line) were screened. The expressed receptors were labeled R1-R10.

orphan receptors R1-R9 = assay: HFF11 reporter cell initial screening on the other orphan receptors; format: cell-based, human; design: dose or concentration left out as unconfirmed; settings: data not shown
Description: Taken together, this prompted an investigation of these FFAs using a screening approach aimed at identifying potential surface receptors. We used a highly sensitive reporter system (Kotarsky et al., 2001) expressing each of ten different putative human heptahelix receptors, for which the endogenous activating ligands were still unknown (i.e., “orphan receptors”), was used. The receptor sequences were selected from GenBank, based on a reasonably high sequence homology to the receptors for leukotriene B4 (an AA derivative), previously cloned. (Owman et al., 1996; Tryselius et al., 2000.)
Construction of the HFF11 reporter cell lines (successor of the previously described HeLa based cell line, HF1) expressing the orphan GPCRs studied was performed as earlier reported. (Co-pending U.S. application Ser. No. 09/946,334 filed Sep. 21, 2001; Kotarsky et al. 2001.) They contain the reporter plasmid, pcFUS3, where the original promoter region has been extended by 6 NFkB and 6 STAT elements. (Co-pending U.S. application Ser. No. 09/946,334 filed Sep. 21, 2001; Kotarsky et al., unpublished.) On day 1, HFF11 reporter cells, with or without the test heptahelix receptor, were seeded into 96-well plates at 20,000 cells per well in 100 μl growth medium. On day 3, the medium was removed and replaced by 90 μl serum-free medium. […]

FFAR (R10; GPR40) [2] = molecular target: T1, FFAR (R10; GPR40); assay: Aequorin reporter assay (calcium release) in CHO and HeLa cells transiently transfected with R10; format: cell-based; settings: CHO and HeLa cells co-transfected with R10 and aequorin, versus sham-transfected cells, FIG. 2
Protocol: Cells were seeded the day before transfection in a 6-well plate (400,000 cells/well). Then, 0.8 μg of PCDM.AEQ reporter plasmid (Button et al., 1993.) and 1 μg pIRESpuro.R10 receptor plasmid, or pcEGFP for controls, were mixed with 100 μl OptiMEM containing 5 μl per transfection of PLUS reagent. After 15 min., 100 μl OptiMEM and 9 μl (HeLa cells) or 6 μl (CHO cells) of lipofectamine were added and incubated for another 15 min. Then, 800 μl OptiMEM were added, and the cells were washed and incubated with the transfection solution for 5 h. Two days after transfection, cells were loaded with 10 μM coelenterazine and injected into a 96-well plate containing test or control (vehicle) substances. Light emission was recorded for 1 min in a BMG Lumistar Galaxy luminometer and normalized to total emission using […] 100 mM CaCl2 for each well.
Activation of receptor R10 by LA was confirmed by stimulation in two different cell lines, CHO and HeLa, transiently co-transfected with expression vectors containing the R10 ORF (i.e., the gene encoding FFAR) and the calcium-activated photoprotein, aequorin. […] (FIG. 2.)

[3] = FFAR response to free fatty acids, HFF11.pR10 reporter cell line, read-out: Mean EC50
[4] = HFF11 reporter cells expressing FFAR

T1 sequence (O14842 whole entry): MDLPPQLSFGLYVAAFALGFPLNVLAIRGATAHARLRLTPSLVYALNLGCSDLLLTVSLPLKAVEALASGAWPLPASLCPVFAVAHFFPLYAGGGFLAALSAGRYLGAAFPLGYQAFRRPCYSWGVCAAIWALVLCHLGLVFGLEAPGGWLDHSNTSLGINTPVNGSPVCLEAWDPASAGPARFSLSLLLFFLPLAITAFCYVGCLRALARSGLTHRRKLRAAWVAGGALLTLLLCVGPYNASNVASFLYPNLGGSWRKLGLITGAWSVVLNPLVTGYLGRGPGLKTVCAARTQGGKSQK

SMILES	EC50 (FFAR (R10; GPR40) [1]; [3])	activation of FFAR (FFAR (R10; GPR40) [1]; [4])	further results
CCCCCCC(O)CCCCCCCCCCC(=O)O (stereo not drawn) [Hydroxystearic acid, 12-hydroxyoctadecanoic acid]	8 µM		
CCCCC/C=C\C/C=C\C/C=C\C/C=C\CCCC(=O)O [arachidonic acid]			response of the R10 reporter cell line in the initial screening (FFAR (R10; GPR40) [1]): no effect; effect on test receptors R1-R9 in the initial screening (orphan receptors R1-R9): no effect
CCCCCCCCCCCC(=O)O [Lauric acid, Dodecanoic acid]	22.5 µM		
CC1(COc2ccc(CC3SC(=O)NC3=O)cc2)CCCCC1 (racemic) [Ciglitazone, (±)-5-[4-(1-methylcyclohexylmethoxy)-benzyl]thiazolidine-2,4-dione]		strongly activated FFAR	
CCCCCCCCCCCCCCCCCC(=O)O [stearic acid]		able to activate the receptor	
CCCCC/C=C\C/C=C\C/C=C\CCCCC(=O)O [γ-Linoleic acid, cis-6, cis-9, cis-12-octadecanoic acid]	28.5 µM		
CCOC(=O)C(C)(C)Oc1ccc(Cl)cc1 [Clofibrate]		inactive	
CCCCCCC(O)C/C=C/CCCCCCCC(=O)O (stereo not drawn) [Ricinelaidic acid, 12-hydroxy, trans 9-octadecanoic acid]	20 µM		
CCCCCCCCCCCCCCCC(=O)O [Palmitic acid, Hexadecanoic acid]	143 µM		
CCCCCCC(O)C/C=C\CCCCCCCC(=O)O (stereo not drawn) [Ricinoleic acid, 12-hydroxy, cis 9-octadecenoic acid]	8 µM		
CCC=CCC=CCC=CCC=CCCCCC(=O)O [Stearidonic acid, cis-6, cis-9, cis-12-15-octadecanoic acid]	8.9 µM		
COc1ccc(Cl)cc1C(=O)NCCc1ccc(S(=O)(=O)NC(=O)NC2CCCCC2)cc1 [Glibenclamid, Glibenclamide]		inactive	
CCCCCCCCCC(=O)O [Capric acid, Decanoic acid]			EC50 (FFAR (R10; GPR40) [1]; concentration response curves, HFF11 reporter cells expressing FFAR, FIG. 3, read-out: EC50): 12.6 µM
CC(C)(CCCCCCCCCCC(C)(C)CC(=O)O)CC(=O)O [MEDICA 16, 3,3,14,14-tetramethyl-hexadecanedioic acid]		strongly activated FFAR	

Further lines, with some results ahead:

EC50 (FFAR (R10; GPR40) [1]; [3])	activation of FFAR (FFAR (R10; GPR40) [1]; [4])	SMILES	further results
77.3 µM	activated FFAR	CCCCC/C=C\C=C\CCCCCCCCC(=O)O [CLA, trans-10, cis-12-octadecanoic acid]	
3.4 µM	activated FFAR	CCCCC/C=C\C=C\C(O)CCCCCCCC(=O)O (racemic) [9-HODE, (±)-9-hydroxy, trans-10, cis-12-octadecanoic acid]	
120 µM		CCCCCCCC/C=C/CCCCCCCC(=O)O [Elaidic acid, trans-9-octadecanoic acid]	
123 µM		CCCCCCCC/C=C\CCCCCCCC(=O)O [Oleic acid, cis-9-octadecanoic acid]	
38.4 µM		CCCCC/C=C\C/C=C\CCCCCCCC(=O)O [Linoleic acid, cis-9, cis-12,-octadecanoic acid]	response of the R10 reporter cell line in the initial screening (FFAR (R10; GPR40) [1]): strong and reproducible response; calcium-mediated luminescence upon stimulation (FFAR (R10; GPR40) [2]): calcium-mediated luminescence flash
20 µM		CCCCC/C=C\C/C=C\CCCCCCCCCC(=O)O [EDA, cis-11, cis-14- -eicosadienoic acid]	
25 µM		CCCC/C=C/CCCCCCCC(=O)O [Myristelaidic acid, trans-9-tetradecenoic acid]	
100 µM		CCCCCC/C=C\CCCCCCCC(=O)O [Palmitoleic acid, hexadecenoic acid]	
